Results on 1 compound are retold here after publication PMC5642494 (Oncotarget, 2017).

The subject of assay [1] is MCF7 cells. The assay is described as follows: BrdU incorporation ELISA in MCF7. It is filed as cell-based. Particulars: Homo sapiens, 3 DT. The protocol: (§1) Relative IC50/EC50 values were determined by curve fitting to a four parameter logistic equation: Y = bottom + ((top-bottom)/ (1+exp(HillSlope*(X – LnIC50)), where X is the natural log of dose/concentration, Y is response, decreasing as X increases, top and bottom are plateaus in the same units as Y, lnIC50 is the natural log of potency, in the same log units as X, and HillSlope measures the steepness of the curve. Data were plotted using GraphPad Prism.
After treatment, an ELISA for BrdU detection was performed (Roche, Cat. No. 11 669 915 001) following the vendor’s manual. Envision® (PerKinElmer) was used to measure the light emission of the samples and raw data were processed with Microsoft Excel and relative EC50 values were determined as described above. For normalization, the mean value obtained from cells treated with 2 µM […] doxorubicin (Sigma #D1515) was set as the minimum, and that obtained from treatment with the vehicle (0.2% DMSO) was set as the maximum.
In general terms: Dividing cells build labelled thymidine or BrdU into new DNA.

A further assay has as its system H3K9me3. The assay is described as follows: Hypermethylation of histone H3 at lysine 9 (H3K9me3), MCF7. Type of assay: cell-based. The conditions noted are these: Homo sapiens, 2 DT, n = 2, read-out: EC50 H3K9me3 levels. On the procedure: as §1
BioResearch) where indicated; the dates of acquisition and in an Acumen Explorer Ex3 (TTP Labtech), raw data testing are listed in parentheses: ZR-75-1; T-47D; MDA- were analyzed with Cellista software and then further MB-468; HCC70; BT-549; BT-20; MDA-MB-231; MDA- normalized in Excel against the values obtained for cells MB-175-VII, HCC-1937; MDA-MB-415. treated with 2 µM BEZ235, or vehicle (0.2% v/v DMSO); data were graphed using GraphPad Prism®. Images were SA-β-galactosidase immunocytochemical labeling taken by fluorescent microscopy using a Leica DMiL. […]
SA-β-gal Cell samples were lysed after treatment with expression was determined using the Senescence Cells 100 µL lysis buffer and transferred to a 96-well plate. […]
(BSA) (Invitrogen #15260-037) for 1 hour at 25°C. EdU Samples were analyzed by LC─MS/MS under the detection was performed using the Click-iT High Content conditions described below. […]

Assay [2] concerns MCF7 cells. The assay is described as follows: Multiplexed cell number, β-gal and TUNEL in MCF7. Type of assay: cell-based, human. The conditions noted are these: 0.125 µM or 0.5 µM, 1-5 DT. On the procedure:
The viable cell number was determined by PI staining, the % of β-gal positive cells was determined using an antibody to β-gal, and the % of Tunel positive cells was determined by the incorporation of labelled dUTP. The data are plotted as the mean (+/- SD) of 2 experiments for CDK4 and CDK6 inhibitor treatment, and the mean of 6 experiments (+/- SD) for untreated samples. The duration of treatment is plotted along the x-axis in doubling times (DT) for MCF7 cells.
After treatment, cells were fixed, washed with PBS, permeabilized and β-gal was detected using anti-β-galactosidase antibody; for multiplexed assays, TUNEL staining was carried out using Roche TUNEL reagents as indicated above. Nuclei were also stained with PI for total cell counting. Plates were read in an Acumen Explorer Ex3 (TTP Labtech) and raw data were analyzed with Cellista software. Outputs were expressed as percentages of each identified subpopulation 1) positive β-gal, and 2) total cell number. The percentages of β-gal positive cells, TUNEL positive cells, and cell numbers were plotted in Microsoft Excel.

Regarding `CCN1CCN(Cc2ccc(Nc3ncc(F)c(-c4cc(F)c5nc(C)n(C(C)C)c5c4)n3)nc2)CC1` [abemaciclib, Abemaciclib], the concentration for a half-maximal effect (EC50) in the assay with MCF7 cells [1] came out at 178 nM; in the assay with H3K9me3 it was 340 ± 16 nM. For the same compound, the TUNEL staining result with MCF7 cells [2] is given as “increase in TUNEL staining was observed by 2DT”.

The term EC50 denotes the midpoint of the concentration-response curve.
